Data on five compounds can be found in article PMC8233204, “Cardiac myosin-binding protein C interaction with actin is inhibited by compounds identified in a high-throughput fluorescence lifetime screen” (The Journal of Biological Chemistry, 2021).

Where two headings read alike, the source gives them in different places.

For data set [1], the target named is T1, ErIA-actin (Oryctolagus cuniculus, UniProt P68135).
T1 construct: Actin was prepared from rabbit skeletal muscle by extracting acetone powder; from tissue; host or cells: rabbit skeletal muscle (acetone powder)
The data set is described as follows: Transient phosphorescence anisotropy (TPA) of ErIA-actin alone. The class given is biochemical, rabbit. The note with it: concentration not given. The procedure: […] These were added together with glucose catalase/oxidase to prevent photobleaching, and TPA was performed at 25 °C to determine anisotropy values ([7]).

For data set [2], the target named is T2, AF568-actin:C0-C2 (actin-cMyBP-C binding) (Homo sapiens, UniProt Q14896). The data set is described as follows: TR-F high-throughput screen of LOPAC library, AF568-actin with C0-C2. The method, then:
(§1) The 1280 LOPAC compounds were received in 96-well plates (LOPAC^1280, Sigma-Aldrich) and were reformatted into 1536-well flat, black-bottom polypropylene plates (Greiner Bio-One). In total, 50 nl of compounds was dispensed using an automated Echo 550 acoustic liquid dispenser (Labcyte). LOPAC compounds were formatted into plates, with the first two and last two columns loaded with 50 nl of DMSO and used for compound-free controls. The final concentration of the compounds was 10 μM. These assay plates were then heat-sealed using a PlateLoc Thermal Microplate Sealer (Agilent Technologies) and stored at –20 °C. Before screening, compound plates were equilibrated to room temperature (25 °C). In total, 1 μM AF568-labeled actin without or with 2 μM C0-C2 in M-ABB was dispensed by a Multidrop Combi Reagent Dispenser (Thermo Fisher Scientific) into the 1536-well assay plates containing the compounds. Plates were incubated at room temperature for 20 min before recording the data with the FLTPR. Plates were rescanned after 120 min incubation.
(§2) Two full screens were done using different batches of AF568-labeled actin, C0-C2, and test compounds.
(§3) Following data acquisition, TR-F waveforms observed for each well were convolved with the IRF to determine the lifetime (τ) (Equation 1) by fitting to a single-exponential decay ([15], [35]).
(§4) A compound was considered a Hit if it was in the top 25 compounds in each of two independent screenings of the LOPAC. Top compounds were those that increased the lifetime of AF568-actin when C0-C2 was present (indicating inhibition of C0-C2 binding). Compounds that altered AF568-actin lifetime when C0-C2 was not present by >4 SD relative to that of the control samples (those exposed to 0.1% DMSO) were first removed from the analysis. […] Any change in lifetime induced by a compound on AF568-actin alone was then subtracted from the effect of the compound on AF568-actin when C0-C2 was present. The resulting C0-C2-dependent change for all compounds was ranked.

Data set [3] concerns the target T3, AF568-actin (Oryctolagus cuniculus, UniProt P68135).
T3 construct: Actin was prepared from rabbit skeletal muscle by extracting acetone powder; from tissue; host or cells: rabbit skeletal muscle (acetone powder)
The data set is described as follows: TR-F high-throughput screen, AF568-actin alone (no C0-C2). The class given is binding, rabbit. The note with it: 10 μM compound; 1 μM AF568-actin alone. The procedure:
as §1, §2, §3, §4

Data set [4] deals with T2, AF568-actin:C0-C2 (actin-cMyBP-C binding). The data set is described as follows: TR-F concentration-response assay, AF568-actin with C0-C2. The following applies: 2 μM C0-C2.
Procedure: (§5) Using the same conditions as in the primary screen, we determined the concentration dependence of each of the three Hit compounds on the AF568-actin lifetime effects. […] In a separate dose–response assay utilizing 3 μM C0-C2, we compared the effects of the compounds on nonphosphorylated and phosphorylated C0-C2. […] In the second dose-response assay, 3 μM instead of 2 μM C0-C2 was used in the second dose–response assay so that effects of compounds on phosphorylated C0-C2 could be readily detected, as phosphorylation of C0-C2 itself (in the absence of compounds) reduces binding to actin.
The Hit compounds were dissolved in DMSO to make a 10 mM stock solution, which was serially diluted in 96-well mother plates. Hits were screened at eight concentrations (0.5–100 μM). Compounds (1 μl) were transferred from the mother plates into 384-well plates using a Mosquito HV liquid handler (TTP Labtech Ltd). The same procedure of dispensing as for the pilot screening was applied in the TR-F concentration–response assays. Concentration dependence of the TR-F change was fitted using the Hill equation ([38]):(3) τ=τo+τmaxC^α/EC50α+C^α where τ and τ0 are TR-F in the presence and in the absence of the compound, τmax is the maximum effect, C is the compound concentration, EC50 is the compound concentration for which 50% of maximum effect is obtained, and α is the Hill coefficient of sigmoidicity.
The target in data set [5] is C0-C2 portion of human cMyBP-C (Homo sapiens, UniProt Q14896). Briefly: Isothermal titration calorimetry (ITC) of compounds binding to C0-C2.
The target in data set [6] is T4, F-actin (Oryctolagus cuniculus, UniProt P68135).
T4 construct: Actin was prepared from rabbit skeletal muscle by extracting acetone powder; from tissue; host or cells: rabbit skeletal muscle (acetone powder)
Briefly: ITC of compounds with actin alone. In kind it is binding, rabbit. The method, then:
The titration of compounds binding to cMyBP-C was performed on an Affinity ITC (TA Instruments). Each compound in M-ABB buffer (2000–3000 μM) was titrated into C0-C2 in M-ABB buffer (100 μM, 350 μl). For the titration, a preliminary 2.5-μl injection (ignored in data analysis) was followed by 19–39 subsequent 2.5-μl injections with 4 min waits between each injection. The reference cell was filled with distilled water. To account for heat changes of dilution and mechanical mixing, binding data were corrected by subtraction of the final plateau injection values (when binding is complete) prior to curve fitting. Corrected binding data was processed using the NanoAnalyze analysis software (TA Instruments).
Figure S2. ITC of Suramin binding to actin alone. (A) Titration of 100 µM F-actin (in 350 µl) with 40 2.5
µl injections of 3,000 µM Suramin. (B) Fitted ITC binding curve for Suramin binding. Binding to actin was
for Suramin with actin alone (Kd ~200 µM).
(1 picture or pasted object on this page, not shown here)

In data set [7] the target is T5, FMAL-actin:TMR-C0-C2^Cys225 (Homo sapiens, UniProt Q14896, C239L/C249S/C426T/C436V/C443S/H225C).
T5 construct: N-terminal domains C0 through C2 (C0-C2), containing the proline/alanine-rich linker (P/A) and the M-domain (M); 6x His (N, cleaved yes); TEV protease cleavage site (N, cleaved yes); made in house; host or cells: E. coli BL21DE3 (C0-C2^Cys225); actin purified from rabbit skeletal muscle
The data set is described as follows: FMAL-actin-TMR-C0-C2 TR-FRET binding assay. The note with it: 20 μM compound; 1 μM FMAL-actin, 2 μM TMR-C0-C2; both nonphosphorylated and phosphorylated C0-C2. The procedure: In total, 1 μM F-Actin labeled (to 10%) on Cys-374 with FMAL (donor fluor) was incubated with increasing concentrations (0–20 μM) of C0-C2^Cys225 unlabeled (for donor only (D) data acquisition) or labeled to 95% with TMR (acceptor fluor) (for donor–acceptor (DA) data). Lifetimes of FMAL-actin were determined for D and DA at each concentration of C0-C2^Cys225. TR-FRET efficiency (1 – (τDA/τD)) was determined for each C0-C2^Cys225 concentration. The binding curve was generated from data from two separate preparations of actin and C0-C2^Cys225. Testing of compound effects by TR-FRET was similarly done at 1 μM FMAL-actin with unlabeled C0-C2^Cys225 (D) and TMR-C0-C2^Cys225 (DA), both at 2 μM.

Data set [8] addresses T6, C0-C2 (Homo sapiens, UniProt Q14896).
T6 construct: N-terminal domains C0 through C2 (C0-C2), containing the proline/alanine-rich linker (P/A) and the M-domain (M); 6x His (N, cleaved yes); TEV protease cleavage site (N, cleaved yes); made in house; host or cells: E. coli BL21DE3
The data set is described as follows: Visible light scattering (C0-C2 aggregation). The note with it: 2 or 10 μM C0-C2 mixed with compound for 20 min. The procedure: All three drugs were tested for causing C0-C2 to aggregate by measuring absorbance in the visible range beyond the absorption of protein or the drugs themselves. Observed absorbance in these wavelengths is actually loss of transmitted light due to light scattering from aggregated C0-C2. 2 or 10 μM of C0-C2 was mixed with 20 μM of suramin, NF023, or ATA for 20 min and wavelengths 250–600 nm were scanned using a Beckman Coulter DU730 UV/Vis Spectrophotometer to determine optical density. The same was done with 2 or 10 μM of C0-C2 and 20 μM of suramin, NF023, or ATA alone.

The target of data set [9] is AF568-actin:phosphorylated (by PKA) C0-C2 (Homo sapiens, UniProt Q14896). Briefly: TR-F concentration-response assay, AF568-actin with PKA-phosphorylated C0-C2.
Procedure: as §5
C0-C2 was treated with 7.5 ng PKA/μg C0-C2 at 30 °C for 30 min.
The Hit compounds were dissolved in DMSO to make a 10 mM stock solution, which was serially diluted in 96-well mother plates. Hits were screened at eight concentrations (0.5–100 μM). Compounds (1 μl) were transferred from the mother plates into 384-well plates using a Mosquito HV liquid handler (TTP Labtech Ltd). The same procedure of dispensing as for the pilot screening was applied in the TR-F concentration–response assays.
Data set [10] concerns the target T7, ErIA-actin + C0-C2 (Homo sapiens, UniProt Q14896).
T7 construct: N-terminal domains C0 through C2 (C0-C2), containing the proline/alanine-rich linker (P/A) and the M-domain (M); 6x His (N, cleaved yes); TEV protease cleavage site (N, cleaved yes); made in house; host or cells: E. coli BL21DE3 (C0-C2); actin purified from rabbit skeletal muscle
Briefly: Transient phosphorescence anisotropy (TPA) of ErIA-actin with C0-C2. In kind it is biochemical. The following applies: 1 μM ErIA-actin, 2 μM C0-C2; actin alone 0.033 ± 0.001. The method, then:
The same mixtures were tested in the presence of 2 μM C0-C2. These were added together with glucose catalase/oxidase to prevent photobleaching, and TPA was performed at 25 °C to determine anisotropy values ([7]).

In data set [11] the target is FMAL-actin (F-actin from rabbit skeletal muscle labeled at Cys-374 with fluorescein-5-maleimide) (rabbit) (UniProt P68135). The data set is described as follows: FRET or BRET; TR-FRET; 1 μM F-actin labeled (to 10%) with FMAL (donor) with 0-20 μM TMR-C0-C2^Cys225 (acceptor) ±PKA; M-ABB.
Data set [12] shares this target. Described as above. The source holds these as a separate data set.
Setting [13] is: 10 μM compound, 1 μM AF568-actin, 2 μM C0-C2.
The mark [14] stands for this setting: Δτ actin+C0-C2 after subtracting effect on actin alone.
[15] abbreviates: single titration shown in Fig. 4.

Sequence of C0-C2 portion of human cMyBP-C (Q14896 1-451 limits assumed): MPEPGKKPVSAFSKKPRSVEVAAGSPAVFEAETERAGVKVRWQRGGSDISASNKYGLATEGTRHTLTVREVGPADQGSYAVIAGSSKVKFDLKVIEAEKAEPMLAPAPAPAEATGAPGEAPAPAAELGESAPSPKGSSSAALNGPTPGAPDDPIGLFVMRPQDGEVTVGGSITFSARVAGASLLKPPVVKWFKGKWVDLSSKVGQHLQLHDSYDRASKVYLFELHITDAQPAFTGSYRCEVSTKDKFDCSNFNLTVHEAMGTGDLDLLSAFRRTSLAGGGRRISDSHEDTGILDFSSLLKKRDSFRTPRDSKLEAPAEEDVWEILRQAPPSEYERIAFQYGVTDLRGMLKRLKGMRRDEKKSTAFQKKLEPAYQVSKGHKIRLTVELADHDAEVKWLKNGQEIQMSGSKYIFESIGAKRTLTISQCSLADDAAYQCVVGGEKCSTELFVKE
T2 sequence (Q14896 1-451 limits assumed): as above
Sequence of AF568-actin:phosphorylated (by PKA) C0-C2 (Q14896 1-451 limits assumed): as above
T7 sequence (Q14896 1-451 limits assumed): as above
T6 sequence (Q14896 1-451 limits assumed): as above
T5 sequence (Q14896 1-451 H225C/C239L/C249S/C426T/C436V/C443S limits assumed): as the sequence (Q14896 1-451 limits assumed) above, with H225C, C239L, C249S, C426T, C436V, C443S counted along it

For `O=C(NCCO)c1cccc(-c2cc(Nc3ccc(OC(F)(F)F)cc3)ncn2)c1` [GNF-5], the “effect on actin anisotropy (TPA), control compound” value in data set [1] was “does bind actin and changes its anisotropy”.
Regarding `Cc1ccc(C(=O)Nc2ccc(S(=O)(=O)O)c3cc(S(=O)(=O)O)cc(S(=O)(=O)O)c23)cc1NC(=O)c1cccc(NC(=O)Nc2cccc(C(=O)Nc3cc(C(=O)Nc4ccc(S(=O)(=O)O)c5cc(S(=O)(=O)O)cc(S(=O)(=O)O)c45)ccc3C)c2)c1` [Suramin, suramin], in [2] (setting [13]), the “Actin-MyBP-C Drug Δτ, Screen 1” value is recorded as 0.088 ns; the “Actin-MyBP-C Drug Δτ, Screen 2” value was found to be 0.15 ns; the “Actin-MyBP-C Drug Δτ, Sub-optimal Screen 3” value is given as 0.18 ns; the “Actin-MyBP-C Drug Δτ, Sub-optimal Screen 4” value is on record as 0.13 ns. The “average change in lifetime, SD above the median of all compounds not excluded” value in data set [2] (10 μM compound, 1 μM AF568-actin, 2 μM C0-C2, average of screens) worked out at 6.5 SD. Besides, in data set [2] (setting [14]), the “Difference, Screen 1” value turned out to be 0.12 ns; the “Difference, Screen 2” value came to 0.16 ns; the “Difference, Sub-optimal Screen 3” value stood at 0.21 ns; the “Difference, Sub-optimal Screen 4” value is listed as 0.09 ns. In data set [3], the “Actin Drug Δτ, Screen 1” value was -0.03 ns; the “Actin Drug Δτ, Screen 2” value is 0.00 ns; the “Actin Drug Δτ, Sub-optimal Screen 3” value is -0.03 ns; the “Actin Drug Δτ, Sub-optimal Screen 4” value is 0.04 ns. Besides, a half-maximal effect in [4] (1 μM AF568-actin, mean ± SE) (EC50) was put at 5.9 ± 1.2 µM. Moreover, the TR-F n in [4] (n not defined in table) was found to be 3.6. Moreover, the “ITC ΔS” value in data set [5] (Table 1 average, no unit in table (Fig. 4: J/mol•K)) stood at 32.3. Moreover, the “ITC ΔH” value in [5] (Table 1 average, no unit in table (Fig. 4: kJ/mol)) is −17.4. In addition, in [5] (Table 1 average, unit not given), the “ITC ΔG” value is recorded as −26.8. For the same compound, the “ITC n (stoichiometry, compound per C0-C2)” value in [5] (average of two preparations) was determined as 3.4. Besides, the Kd in data set [5] (compound binding to C0-C2, mean ± SE, two protein preparations, read-out: ITC Kd) came to 16.6 ± 1 µM. For the same compound, in [5] (setting [15]), the “ITC n (fitted curve of Figure 4)” value worked out at 3.9, the “ITC ΔH (fitted curve of Figure 4)” value was -4.25 kcal/mol and the “ITC ΔS (fitted curve of Figure 4)” value worked out at 30.2 J/mol•K. For the same compound, the Kd in [5] (single titration shown in Fig. 4, 100 μM C0-C2, read-out: ITC Kd (fitted curve of Figure 4)) was 17.6 µM. Besides, in data set [6], the Kd is ~200 µM. Besides, the “ITC interaction with F-actin (in words)” value in [6] (actin alone) is on record as “weak interaction”. The “TR-FRET measured binding of C0-C2 to actin, effect of compound” value in data set [7] is “almost completely eliminated”. Further, the “absorbance in the visible range (light scatter, C0-C2 aggregation)” value in [8] is “did not detect absorption”. In addition, in data set [9], it took 4.8 ± 1.2 µM to reach a half-maximal effect (EC50). Further, the “TR-F+PKA n” value in data set [9] (3 μM phosphorylated C0-C2, n not defined in table) is 1.2.
In the case of “C0-C2: recombinant N-terminal fragment (domains C0 through C2) of human cMyBP-C”, the “actin's final anisotropy in the presence of C0-C2” value in [10] amounted to 0.071 ± 0.003.
Take “TMR-C0-C2^Cys225 (single-cysteine C0-C2 of human cMyBP-C labeled with tetramethylrhodamine at Cys225) (from UniProt Q14896 1-1274) (domain or fragment)”: the Kd came to 1 µM in data set [11] and 2.6 µM in data set [12]. In [12], this compound yielded a donor lifetime τDA of FMAL-actin with 20 μM TMR-C0-C2^Cys225 (τD = 4.2 ns) of 2 ns.
Take “TMR-C0-C2^Cys225 phosphorylated by PKA (from UniProt Q14896 1-1274) (domain or fragment)”: the Kd amounted to 3 µM in [11] and 8 µM in [12].
